Test results reported in PubChem BioAssay (NCI).
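Briefly, cells in 96-well plates were exposed to five compound concentrations for 48 h, and endpoints were estimated by linear interpolation. At the GI50, growth is halved. The concentration for full growth arrest is given as TGI.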

Experiments:
Experiment in all cases: NCI-60 cell line screen, 48 h
PC-3 prostate = tested on: PC-3 prostate
NCI-H460 lung = tested on: NCI-H460 lung
SK-OV-3 ovarian = tested on: SK-OV-3 ovarian
HCT-15 colon = tested on: HCT-15 colon
SNB-19 CNS = tested on: SNB-19 CNS
NCI/ADR-RES ovarian = tested on: NCI/ADR-RES ovarian
HL-60(TB) leukemia = tested on: HL-60(TB) leukemia
OVCAR-4 ovarian = tested on: OVCAR-4 ovarian
LOX IMVI melanoma = tested on: LOX IMVI melanoma
UO-31 renal = tested on: UO-31 renal

SMILES	GI50 (PC-3 prostate) [µM]	TGI (PC-3 prostate) [µM]	GI50 (NCI-H460 lung) [µM]	TGI (NCI-H460 lung) [µM]	GI50 (SK-OV-3 ovarian) [µM]	TGI (SK-OV-3 ovarian) [µM]	GI50 (HCT-15 colon) [µM]	TGI (HCT-15 colon) [µM]	GI50 (SNB-19 CNS) [µM]	TGI (SNB-19 CNS) [µM]	GI50 (NCI/ADR-RES ovarian) [µM]	TGI (NCI/ADR-RES ovarian) [µM]	GI50 (HL-60(TB) leukemia) [µM]	TGI (HL-60(TB) leukemia) [µM]	GI50 (OVCAR-4 ovarian) [µM]	TGI (OVCAR-4 ovarian) [µM]	GI50 (LOX IMVI melanoma) [µM]	TGI (LOX IMVI melanoma) [µM]	GI50 (UO-31 renal) [µM]	TGI (UO-31 renal) [µM]
CN(C)CC(O)c1ccc(/C=C/c2ccc(Cl)cc2)cc1 (stereo not given)	1.42	3.09	1.45	2.75	13	26.5	1.62	3.32	2.88	10.4	1.67	3.19	1.11	2.7	2.49	6.58	1.63	2.98	1.3	2.61
C=C1C[C@H](O)[C@H](Br)C(C)(C)[C@@]12CCC(C)=C(Cl)C2	0.0573	1.87	0.263	1.61	0.297	6.41	0.269	1.27	0.683	14.1	0.247	11.2	0.206	0.761	0.155	7.81	0.483	2.07	0.612	3.25
COc1cc2c(cc1OC)-c1cc(OC)c(OC)cc1C(CN(C)C)C2 (stereo not given)	> 10	> 10	> 10	> 10	> 10	> 10	> 10	> 10	> 10	> 10	> 10	> 10	> 10	> 10	> 10	> 10	> 10	> 10	> 10	> 10
O=C(NC1CCCCC1)NS(=O)(=O)c1ccc(N2N=C3c4ccccc4CC3C2c2ccc(Cl)cc2)cc1 (stereo not given)	4.05	18.8	4.45	30.6	24.5	> 100	14.5	43.7	21.6	97.5	20.6	69.6	15.8	36.6	38.5	> 100	10.3	21.9	20	40.7
NC(=S)N/N=C\c1nccc2c(C(F)(F)F)cccc12	0.351	15.2	0.26	8.59	0.17	5.89	0.315	19.2	0.382	> 100	0.349	20.4	0.286	1.19	0.162	24.8	0.277	10.8	0.245	3.11
CC(=C(c1ccc(OCCN2CCCCC2)cc1)c1ccc(OCCN2CCCCC2)cc1)c1ccc(Cl)cc1	0.412	0.825	0.452	0.844	0.428	0.806	0.34	0.685	0.438	0.81	0.446	0.858	0.452	0.957	0.46	0.893	0.406	0.754	0.354	0.681
O=C1c2ccccc2C(=O)c2c(/C=C\N3CCCCC3)ccnc21		28		4.91		50.9		6.41		17.1		> 95.4		27.8		28.4		1.68		23.4
Br[Se]c1ccccn1		30		42		34.8		38.4		24.8		61.6		40.3		30.9		33		31.2
COc1ccc(CN2C(=O)C(Cl)=C(Nc3cccc(C(F)(F)F)c3)C2=O)cc1	4.61	37.3	3.1	15.1	8.67	62.2	3.69	17.6	5.09	63.5	7.43	45.6	2.56	19.5	4.74	30.6	3.08	14.1	5.54	32
COC(=O)[C@]12CC[C@@H](C)[C@H](C)[C@@H]1C1=CC[C@@H]3[C@@]4(C)C[C@@H](O)[C@H](O)[C@@](C)(CO)[C@@H]4[C@H](O)C[C@@]3(C)[C@]1(C)CC2	3.63	15.6	14.8	33.6	19.4	33.5	12.5	28.4	13.2	38.9	15.5	35.1	9.1	30.3	12.1	32.8	14	28	6.3	29.8
CCOc1ccc(NC2=CC(=O)C(=O)c3ccccc32)cc1		19.8		6.97		24.9		6.72		9.46		11.3		4.13		7.8		2.77		13.5
CC(C)[C@@H]1NC(=O)[C@]2(C)CSC(=N2)c2ccnc(c2)CNC(=O)C[C@@H](/C=C/CCS)OC1=O	0.0669	> 100	< 0.0253	> 100	0.0354	0.197	9.1	> 100	0.283	> 39.4	2.46	> 61.6	0.513	> 100	1.41	> 100	0.208	0.588	1.56	23.1
Cc1cc(Nc2ccc(C)c(Cl)c2)n2nc(C(F)(F)F)nc2n1	22	> 100	20.9	78.7	29.9	96.7	23.6	> 100	29.4	> 100	27.1	> 100	22.1	66.2	25.8	> 100	26.5	73.9	14.1	33.4
O=C(Nc1nn2c(-c3cc(C(F)(F)F)cc(C(F)(F)F)c3)nnc2s1)C1CCCC1	0.603	> 100	0.473	> 100	1.76	45.8	0.665	> 100	0.614	> 100	0.641	> 28.5	0.407	1.75	0.748	> 37.9	0.807	> 100	0.402	5.57
CCCCCCCCCCSC(=N)N (tested in a mixture with another compound)	5.01	20.1	2.64	6.28	11.8	24.8	2.12	5.06	4.28	18.2	6.29	25.6	1.85	4.19	3.44	16	2.72	11.1	3.02	13
C[C@@H]1CC[C@H]2C(C)(C)[C@H]3C[C@@]12CC[C@@]3(C)O		> 100		34.9		> 100		> 100		> 100		> 100		61.9		> 100		> 100		> 100
CC[C@@H](c1ccc(O)c(O)c1)[C@@H](CC)c1ccc(O)c(O)c1	12.4	28.9	26.1	62	29.4	77.9	2.39	9.41	40.4	> 100	10.1	62.7	2.66	6.21	4.6	39.3	2.85	9.91	4.12	21.4
NCCNCCNCCN	> 100	> 100	> 100	> 100	> 100	> 100	> 100	> 100	> 100	> 100	> 100	> 100	> 100	> 100	> 100	> 100	> 100	> 100	> 100	> 100
